# Laboratory results: ChEMBL document CHEMBL2203213, “Cytotoxic indole diketopiperazines from the deep sea-derived fungus Acrostalagmus luteoalbus SCSIO F457” (Bioorg Med Chem Lett, 2012)
# Columns and labels:
# Assay type in all cases: functional, cell-based
# HepG2 = experiment: Cytotoxicity against human HepG2 cells by SRB method
# NCI-H460 = experiment: Cytotoxicity against human NCI-H460 cells by SRB method
# SF-268 = experiment: Cytotoxicity against human SF268 cells by SRB method
# MCF7 = experiment: Cytotoxicity against human MCF7 cells by SRB method
Compound,IC50 (HepG2),IC50 (NCI-H460),IC50 (SF-268),IC50 (MCF7)
CS[C@]1(CO)NC(=O)[C@](Cc2c[nH]c3ccccc23)(SC)NC1=O [CHETOSEMINUDIN C],> 100 µM,> 100 µM,> 100 µM,> 100 µM
CN1C(=O)[C@@]23C[C@@]4(c5c[nH]c6ccccc56)c5ccccc5N[C@@H]4N2C(=O)[C@]1(CO)SS3 [LUTEOALBUSIN A],0.91 µM,1.15 µM,0.46 µM,0.23 µM
O=C1N[C@@H](Cc2c[nH]c3ccccc23)C(=O)N[C@H]1CO,> 100 µM,> 100 µM,> 100 µM,> 100 µM
CS[C@]1(Cc2c[nH]c3ccccc23)NC(=O)[C@](CO)(SC)N(C)C1=O [CHETOSEMINUDIN B],> 100 µM,> 100 µM,> 100 µM,> 100 µM
C[C@H]1C(=O)N[C@@H](Cc2c[nH]c3ccccc23)C(=O)N1C,> 100 µM,> 100 µM,> 100 µM,> 100 µM
CN1C(=O)[C@]23SSS[C@]1(CO)C(=O)N2[C@H]1Nc2ccccc2[C@@]1(c1c[nH]c2ccccc12)[C@@H]3O,3.52 µM,5.6 µM,1.04 µM,0.91 µM
CN1C(=O)[C@]23SSS[C@@]1(C)C(=O)N2[C@H]1Nc2ccccc2[C@]1(c1c[nH]c2ccccc12)[C@@H]3O,2.03 µM,17.8 µM,2.49 µM,0.65 µM
CN1C(=O)[C@]23SS[C@@]1(C)C(=O)N2[C@H]1Nc2ccccc2[C@]1(c1c[nH]c2ccccc12)[C@@H]3O,0.53 µM,6.57 µM,0.73 µM,0.23 µM
CN1C(=O)[C@@]23C[C@@]4(c5c[nH]c6ccccc56)c5ccccc5N[C@@H]4N2C(=O)[C@]1(CO)SSS3 [LUTEOALBUSIN B],1.29 µM,1.31 µM,0.59 µM,0.25 µM
C[C@@H]1NC(=O)[C@H](Cc2c[nH]c3ccccc23)NC1=O,> 100 µM,> 100 µM,> 100 µM,> 100 µM
